Results on 20 compounds are retold here after US4654349A, “Anti-allergic methods using pyrazolo(1,5-A)pyridines” (Kyorin Pharmaceutical Co., Ltd., priority 1983, dated 1987).

In one experiment the test system is SRS-A release. Description: Inhibitory effect on SRS-A release (chopped lung fragments of sensitized guinea pigs upon antigen challenge, bioassayed on isolated guinea pig ileum). It is filed as cell-based. The following applies: Cavia porcellus; concentration of test compound required to produce a 50% inhibition of SRS-A release; preincubated with lung fragments prior to antigen challenge. The protocol:
The inhibitory effect of the compounds of this invention on SRS-A release was determined according to the method of Orange and Moors [J. Immunol., 116, 392 (1976)]. SRS-A released from chopped lung fragments of sensitized guinea pigs upon antigen challenge was bioassayed on isolate guinea pig ileum according to the method of Brocklehurst [J. Physiol., 151, 416 (1960)]. Test compounds were preincubated with lung fragments prior to antigen challenge.

In a further experiment the test system is Cyclooxygenase. Description: Effect on metabolism of exogenous arachidonic acid in A23187-stimulated guinea pig peritoneal neutrophils: cyclooxygenase product. Type of experiment: cell-based. The protocol: (§1) The effect of the compounds of this invention on the metabolism of exogenous arachidonic acid-1-^14 C was determined essentially according to the method of Harvey and Osborne [J. Pharmacol. Methods 9, 147 (1983)] using guinea pig peritoneal neutrophils stimulated with calcium ionophore A23187. With this procedure, 5-hydroxyeicosatetraenoic acid (a 5-lipoxygenase product) and 12-hydroxy-5,8,10-heptadecatrienoic acid (a cyclooxygenase product) were produced by neutrophils as major metabolites, allowing simultaneous evaluation of the drug effect on both pathways of arachidonic acid metabolism.

Another experiment deals with T1, 5-Lipoxygenase (Cavia porcellus, UniProt A0A286X958).
T1 construct: using guinea pig peritoneal neutrophils stimulated with calcium ionophore A23187; endogenous in cells; host or cells: guinea pig peritoneal neutrophils
T1 sequence (A0A286X958 1-674): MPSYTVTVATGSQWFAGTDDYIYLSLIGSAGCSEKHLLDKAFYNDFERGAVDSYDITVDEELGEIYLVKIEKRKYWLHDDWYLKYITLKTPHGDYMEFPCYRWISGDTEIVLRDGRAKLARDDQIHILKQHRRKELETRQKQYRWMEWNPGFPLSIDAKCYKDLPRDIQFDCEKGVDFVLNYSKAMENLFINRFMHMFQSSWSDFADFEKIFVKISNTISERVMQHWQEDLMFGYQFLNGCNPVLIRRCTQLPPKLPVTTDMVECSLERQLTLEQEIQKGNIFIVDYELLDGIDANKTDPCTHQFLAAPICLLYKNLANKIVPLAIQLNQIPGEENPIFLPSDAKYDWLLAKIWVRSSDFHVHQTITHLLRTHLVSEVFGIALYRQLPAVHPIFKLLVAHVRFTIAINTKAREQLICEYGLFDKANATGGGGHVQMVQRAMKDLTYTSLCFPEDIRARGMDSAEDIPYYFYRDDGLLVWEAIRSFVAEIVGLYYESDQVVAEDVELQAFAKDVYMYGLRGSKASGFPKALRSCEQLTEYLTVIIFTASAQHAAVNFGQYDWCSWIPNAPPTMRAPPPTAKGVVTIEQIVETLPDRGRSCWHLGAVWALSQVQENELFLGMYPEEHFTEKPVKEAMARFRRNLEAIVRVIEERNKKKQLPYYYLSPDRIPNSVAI
In words: Effect on metabolism of exogenous arachidonic acid in A23187-stimulated guinea pig peritoneal neutrophils: 5-lipoxygenase product. It is filed as cell-based. The following applies: read-out: Inhibition percent, 5-Lipoxygenase. Here is the method: as §1

The conditions of experiment [1]: must be insufflated as a powder; cited from earlier work.

Turning to `CCc1ccc2c(O)cnn2c1` [compound 1, 6-Ethyl-3-hydroxypyrazolo[1,5-a]pyridine], the IC50 in the experiment on SRS-A release was found to be 0.55 µg/mL.

In the case of `CC(C)c1nn2ccccc2c1O` [compound 2], the IC50 with SRS-A release amounted to 1.4 µg/mL.

Turning to `Cc1cccc2c(O)c(C(C)C)nn12` [compound 3], the IC50 with SRS-A release was 0.63 µg/mL.

On to `CCc1ccc2c(O)c(C(C)C)nn2c1` [compound 4, 6-Ethyl-3-hydroxy-2-isopropylpyraxolo[1,5-a]pyridine], for which the IC50 with SRS-A release was 3.5 µg/mL.

Regarding `CC(C)Cc1nn2ccccc2c1O` [compound 5], the IC50 with SRS-A release came to 1.8 µg/mL. Moreover, the “Inhibition percent, Cyclooxygenase” value in the experiment with Cyclooxygenase (0.1 μM) amounted to 0%. Moreover, the “Inhibition percent, Cyclooxygenase” value in the experiment with Cyclooxygenase (1.0 μM) is 0%. Further, at 5-Lipoxygenase, the inhibition at 0.1 µM was found to be 20.3% and the inhibition at 1 µM stood at 86.6%.

Take `Oc1c(-c2ccc(F)cc2)nn2ccccc12` [compound 6, 2-p-Fluorophenyl-3-hydroxypyrazolo[1,5-a]pyridine]: the IC50 in the experiment with SRS-A release turned out to be 2.4 µg/mL.

Turning to `CCC(=O)Oc1cnn2cc(CC)ccc12` [compound 7, 6-Ethyl-3-propionyloxypyrazolo[1,5-a]pridine], the IC50 with SRS-A release turned out to be 1 µg/mL. Also, the “Inhibition percent, Cyclooxygenase” value in the experiment with Cyclooxygenase (0.1 μM) is given as 0%. The “Inhibition percent, Cyclooxygenase” value in the experiment with Cyclooxygenase (0.3 μM) is recorded as 0%. On 5-Lipoxygenase, the inhibition at 0.1 µM was 62% and the inhibition at 0.3 µM is 84%.

For `Cc1nn2ccccc2c1OC(=O)C(C)C` [compound 8], in the experiment on SRS-A release, the IC50 was found to be 1.7 µg/mL.

For `CCc1nn2ccccc2c1OC(C)=O` [compound 9], in the experiment on SRS-A release, the IC50 was found to be 1 µg/mL. Also, in the experiment with Cyclooxygenase (0.1 μM), the “Inhibition percent, Cyclooxygenase” value was 0%. For the same compound, the “Inhibition percent, Cyclooxygenase” value in the experiment on Cyclooxygenase (0.3 μM) was 0%. At 5-Lipoxygenase, the inhibition at 0.1 µM was found to be 35.1% and the inhibition at 0.3 µM stood at 61.7%.

In the case of `CCCc1nn2ccccc2c1OC(C)=O` [compound 10], the IC50 in the experiment on SRS-A release came out at 1.7 µg/mL. The “Inhibition percent, Cyclooxygenase” value in the experiment with Cyclooxygenase (0.1 μM) came out at 0%. Also, the “Inhibition percent, Cyclooxygenase” value in the experiment with Cyclooxygenase (0.3 μM) worked out at 0%. Also, at 5-Lipoxygenase, the inhibition at 0.1 µM came out at 20.6% and the inhibition at 0.3 µM was determined as 80.2%.

On to `CC(=O)Oc1c(C(C)C)nn2ccccc12` [compound 11], for which the IC50 with SRS-A release worked out at 0.7 µg/mL.

`CCC(=O)Oc1c(C(C)C)nn2ccccc12` [compound 12]: the IC50 in the experiment with SRS-A release amounted to 0.52 µg/mL. For the same compound, the “Inhibition percent, Cyclooxygenase” value in the experiment on Cyclooxygenase (0.1 μM) was 0%. Also, the inhibition at 0.1 µM at 5-Lipoxygenase turned out to be 53.2%.

On to `CC(C)C(=O)Oc1c(C(C)C)nn2ccccc12` [compound 13], for which the IC50 in the experiment on SRS-A release was 0.88 µg/mL.

For the compound `Cc1cccc2c(OC(=O)C(C)C)c(C(C)C)nn12` [compound 14], the IC50 in the experiment on SRS-A release is 0.53 µg/mL.

In the case of `CCc1ccc2c(OC(=O)C(C)C)c(C(C)C)nn2c1` [compound 15, 6-Ethyl-3-isobutyryloxy-2-isopropylpyrazolo[1,5-a]pyridine], the IC50 in the experiment with SRS-A release was determined as 1.2 µg/mL.

For the compound `CC(C)CC(=O)Oc1c(CC(C)C)nn2ccccc12` [compound 16], the IC50 with SRS-A release worked out at 1.9 µg/mL. Also, the “Inhibition percent, Cyclooxygenase” value in the experiment with Cyclooxygenase (0.1 μM) and in the experiment with Cyclooxygenase (0.3 μM) was 0% throughout. The inhibition at 0.1 µM at 5-Lipoxygenase amounted to 16.9%. Also, the inhibition at 0.3 µM on 5-Lipoxygenase came out at 82.1%.

For the compound `CCOC(=O)Oc1c(C(C)C)nn2cc(CC)ccc12` [compound 17, 3-Ethoxycarbonyloxy-6-ethyl-2-isopropylpyrazolo[1,5-a]pyridine], in the experiment with SRS-A release, the IC50 stood at 1.5 µg/mL.

Regarding `CC(=O)Oc1c(-c2ccc(F)cc2)nn2ccccc12` [compound 20], the IC50 in the experiment with SRS-A release amounted to 2.4 µg/mL. In addition, the “Inhibition percent, Cyclooxygenase” value in the experiment with Cyclooxygenase (1.0 μM) is given as 0%. The inhibition at 1 µM on 5-Lipoxygenase was found to be 83.7%.

Consider `O=C(O)c1cc(=O)c2c(OCC(O)COc3cccc4oc(C(=O)O)cc(=O)c34)cccc2o1` [disodium cromoglycate], for which the “oral activity (in words)” value in experiment [1] is “orally inactive”.

For the compound `O=C1CCN(c2ccccc2)N1` [phenidone, 1phenyl-3-pyrazolidone, reference compound], the IC50 in the experiment with SRS-A release is 6.3 µg/mL. In addition, the “Inhibition percent, Cyclooxygenase” value in the experiment on Cyclooxygenase (0.3 μM) is listed as 0%; in the experiment on Cyclooxygenase (1.0 μM) it was 0%; with Cyclooxygenase (3.0 μM), 0%; in the experiment on Cyclooxygenase (30.0 μM), 58.2%. The inhibition at 0.3 µM at 5-Lipoxygenase is 22%. Besides, the inhibition at 1 µM on 5-Lipoxygenase came out at 60%. On 5-Lipoxygenase (3.0 μM), the inhibition at 3 µM worked out at 89%. In addition, the inhibition at 30 µM on 5-Lipoxygenase (30.0 μM) is 95.5%.
